Laboratory results reported in the CheMixHub viscosity set.

Experiment: xn = mol fraction of the nth substance listed

ClC(Cl)(Cl)Cl + CO
Conditions	viscosity [mPa·s]
298 K, 101.3 kPa, x1 = 0.1518	0.719
298 K, 101.3 kPa, x1 = 0.2927	0.809
298 K, 101.3 kPa, x1 = 0.4346	0.844
298 K, 101.3 kPa, x1 = 0.5445	0.874
298 K, 101.3 kPa, x1 = 0.6871	0.875
298 K, 101.3 kPa, x1 = 0.761	0.858
298 K, 101.3 kPa, x1 = 0.8784	0.867
298.15 K, 101 kPa, x2 = 0.0367	0.877
298.15 K, 101 kPa, x2 = 0.0708	0.871
298.15 K, 101 kPa, x2 = 0.0886	0.869
298.15 K, 101 kPa, x2 = 0.1063	0.865
298.15 K, 101 kPa, x2 = 0.2	0.858
298.15 K, 101 kPa, x2 = 0.2104	0.8395
298.15 K, 101 kPa, x2 = 0.2547	0.857
298.15 K, 101 kPa, x2 = 0.35	0.854
298.15 K, 101 kPa, x2 = 0.375	0.8288
298.15 K, 101 kPa, x2 = 0.4226	0.842
298.15 K, 101 kPa, x2 = 0.46	0.846
298.15 K, 101 kPa, x2 = 0.4787	0.839
298.15 K, 101 kPa, x2 = 0.5069	0.8105
298.15 K, 101 kPa, x2 = 0.55	0.831
298.15 K, 101 kPa, x2 = 0.5618	0.815
298.15 K, 101 kPa, x2 = 0.6107	0.807
298.15 K, 101 kPa, x2 = 0.6154	0.7666
298.15 K, 101 kPa, x2 = 0.6934	0.77
298.15 K, 101 kPa, x2 = 0.7057	0.7387
298.15 K, 101 kPa, x2 = 0.76	0.764
298.15 K, 101 kPa, x2 = 0.7826	0.7057
298.15 K, 101 kPa, x2 = 0.7853	0.719
298.15 K, 101 kPa, x2 = 0.83	0.702
298.15 K, 101 kPa, x2 = 0.8483	0.6886
298.15 K, 101 kPa, x2 = 0.88	0.665
298.15 K, 101 kPa, x2 = 0.9029	0.626
298.15 K, 101 kPa, x2 = 0.9057	0.6477
298.15 K, 101 kPa, x2 = 0.9065	0.6438
298.15 K, 101 kPa, x2 = 0.95	0.599
298.15 K, 101 kPa, x2 = 0.9555	0.5806
298.15 K, 101 kPa, x2 = 0.9571	0.5875
298.15 K, 101 kPa, x2 = 0.9616	0.577
298.15 K, 101 kPa, x2 = 0.9788	0.5672
303.15 K, 101 kPa, x1 = 0.0355	0.54
303.15 K, 101 kPa, x1 = 0.1574	0.594
303.15 K, 101 kPa, x1 = 0.2723	0.665
303.15 K, 101 kPa, x1 = 0.4653	0.71
303.15 K, 101 kPa, x1 = 0.6066	0.76
303.15 K, 101 kPa, x1 = 0.7506	0.766
303.15 K, 101 kPa, x1 = 0.901	0.78
303.15 K, 101 kPa, x2 = 0.0396	0.8187
303.15 K, 101 kPa, x2 = 0.0862	0.8054
303.15 K, 101 kPa, x2 = 0.1437	0.7973
303.15 K, 101 kPa, x2 = 0.2352	0.793
303.15 K, 101 kPa, x2 = 0.3077	0.7919
303.15 K, 101 kPa, x2 = 0.4129	0.7852
303.15 K, 101 kPa, x2 = 0.531	0.7677
303.15 K, 101 kPa, x2 = 0.6187	0.7443
303.15 K, 101 kPa, x2 = 0.6838	0.7184
303.15 K, 101 kPa, x2 = 0.824	0.6435
303.15 K, 101 kPa, x2 = 0.8821	0.6038
303.15 K, 101 kPa, x2 = 0.9292	0.5669
303.15 K, 101 kPa, x2 = 0.9728	0.5306
308.15 K, 101 kPa, x2 = 0.0367	0.764
308.15 K, 101 kPa, x2 = 0.0708	0.756
308.15 K, 101 kPa, x2 = 0.0886	0.755
308.15 K, 101 kPa, x2 = 0.1063	0.749
308.15 K, 101 kPa, x2 = 0.2547	0.738
308.15 K, 101 kPa, x2 = 0.4226	0.724
308.15 K, 101 kPa, x2 = 0.4787	0.72
308.15 K, 101 kPa, x2 = 0.5618	0.7
308.15 K, 101 kPa, x2 = 0.6107	0.691
308.15 K, 101 kPa, x2 = 0.6934	0.656
308.15 K, 101 kPa, x2 = 0.7853	0.619
308.15 K, 101 kPa, x2 = 0.9029	0.543
308.15 K, 101 kPa, x2 = 0.9616	0.502
313.15 K, 101 kPa, x1 = 0.0355	0.54
313.15 K, 101 kPa, x1 = 0.1574	0.594
313.15 K, 101 kPa, x1 = 0.2723	0.665
313.15 K, 101 kPa, x1 = 0.4653	0.71
313.15 K, 101 kPa, x1 = 0.6066	0.76
313.15 K, 101 kPa, x1 = 0.7506	0.766
313.15 K, 101 kPa, x1 = 0.901	0.78
313.15 K, 101.33 kPa, x2 = 0.105	0.7595
313.15 K, 101.33 kPa, x2 = 0.193	0.7624
313.15 K, 101.33 kPa, x2 = 0.303	0.75
313.15 K, 101.33 kPa, x2 = 0.35	0.7427
313.15 K, 101.33 kPa, x2 = 0.51	0.6955
313.15 K, 101.33 kPa, x2 = 0.68	0.6248
313.15 K, 101.33 kPa, x2 = 0.72	0.605
313.15 K, 101.33 kPa, x2 = 0.79	0.57
313.15 K, 101.33 kPa, x2 = 0.91	0.505
318 K, 101.3 kPa, x1 = 0.1527	0.5328
318 K, 101.3 kPa, x1 = 0.2949	0.6044
318 K, 101.3 kPa, x1 = 0.4375	0.6446
318 K, 101.3 kPa, x1 = 0.5566	0.6729
318 K, 101.3 kPa, x1 = 0.7077	0.69
318 K, 101.3 kPa, x1 = 0.8931	0.7164
318.15 K, 101 kPa, x2 = 0.0367	0.672
318.15 K, 101 kPa, x2 = 0.0708	0.664
318.15 K, 101 kPa, x2 = 0.0886	0.67
318.15 K, 101 kPa, x2 = 0.1063	0.657
318.15 K, 101 kPa, x2 = 0.2547	0.643
318.15 K, 101 kPa, x2 = 0.4226	0.63
318.15 K, 101 kPa, x2 = 0.4787	0.623
318.15 K, 101 kPa, x2 = 0.5618	0.607
318.15 K, 101 kPa, x2 = 0.6107	0.598
318.15 K, 101 kPa, x2 = 0.6934	0.57
318.15 K, 101 kPa, x2 = 0.7853	0.537
318.15 K, 101 kPa, x2 = 0.9029	0.476
318.15 K, 101 kPa, x2 = 0.9616	0.44
323.15 K, 101 kPa, x1 = 0.0355	0.51
323.15 K, 101 kPa, x1 = 0.1574	0.543
323.15 K, 101 kPa, x1 = 0.2723	0.612
323.15 K, 101 kPa, x1 = 0.4653	0.642
323.15 K, 101 kPa, x1 = 0.6066	0.682
323.15 K, 101 kPa, x1 = 0.7506	0.698
323.15 K, 101 kPa, x1 = 0.901	0.706
